The record followed here is US4596805A, “Substituted dioxopyridopyrimidines” (Ortho Pharmaceutical Corporation, priority 1984, dated 1986).

Some results are limits rather than exact numbers.

For test [1], the target named is calcium channel antagonist receptors (rabbit heart) (Oryctolagus cuniculus, UniProt P15381). As to the kind of experiment: Nitrendipine Binding Assay (Test 1). On the set-up: species or system rabbit (female New Zealand white). The following applies: 3H-nitrendipine (0.05-0.50 nM), rabbit heart membrane, 90 min at 4° C., pH 7.4; read-out: Test 1 (IC50): concentration required to achieve 50% displacement of specifically-bound nitrendipine.
calcium channel antagonist receptors (rabbit heart), sequence (P15381 whole entry, other chains not shown): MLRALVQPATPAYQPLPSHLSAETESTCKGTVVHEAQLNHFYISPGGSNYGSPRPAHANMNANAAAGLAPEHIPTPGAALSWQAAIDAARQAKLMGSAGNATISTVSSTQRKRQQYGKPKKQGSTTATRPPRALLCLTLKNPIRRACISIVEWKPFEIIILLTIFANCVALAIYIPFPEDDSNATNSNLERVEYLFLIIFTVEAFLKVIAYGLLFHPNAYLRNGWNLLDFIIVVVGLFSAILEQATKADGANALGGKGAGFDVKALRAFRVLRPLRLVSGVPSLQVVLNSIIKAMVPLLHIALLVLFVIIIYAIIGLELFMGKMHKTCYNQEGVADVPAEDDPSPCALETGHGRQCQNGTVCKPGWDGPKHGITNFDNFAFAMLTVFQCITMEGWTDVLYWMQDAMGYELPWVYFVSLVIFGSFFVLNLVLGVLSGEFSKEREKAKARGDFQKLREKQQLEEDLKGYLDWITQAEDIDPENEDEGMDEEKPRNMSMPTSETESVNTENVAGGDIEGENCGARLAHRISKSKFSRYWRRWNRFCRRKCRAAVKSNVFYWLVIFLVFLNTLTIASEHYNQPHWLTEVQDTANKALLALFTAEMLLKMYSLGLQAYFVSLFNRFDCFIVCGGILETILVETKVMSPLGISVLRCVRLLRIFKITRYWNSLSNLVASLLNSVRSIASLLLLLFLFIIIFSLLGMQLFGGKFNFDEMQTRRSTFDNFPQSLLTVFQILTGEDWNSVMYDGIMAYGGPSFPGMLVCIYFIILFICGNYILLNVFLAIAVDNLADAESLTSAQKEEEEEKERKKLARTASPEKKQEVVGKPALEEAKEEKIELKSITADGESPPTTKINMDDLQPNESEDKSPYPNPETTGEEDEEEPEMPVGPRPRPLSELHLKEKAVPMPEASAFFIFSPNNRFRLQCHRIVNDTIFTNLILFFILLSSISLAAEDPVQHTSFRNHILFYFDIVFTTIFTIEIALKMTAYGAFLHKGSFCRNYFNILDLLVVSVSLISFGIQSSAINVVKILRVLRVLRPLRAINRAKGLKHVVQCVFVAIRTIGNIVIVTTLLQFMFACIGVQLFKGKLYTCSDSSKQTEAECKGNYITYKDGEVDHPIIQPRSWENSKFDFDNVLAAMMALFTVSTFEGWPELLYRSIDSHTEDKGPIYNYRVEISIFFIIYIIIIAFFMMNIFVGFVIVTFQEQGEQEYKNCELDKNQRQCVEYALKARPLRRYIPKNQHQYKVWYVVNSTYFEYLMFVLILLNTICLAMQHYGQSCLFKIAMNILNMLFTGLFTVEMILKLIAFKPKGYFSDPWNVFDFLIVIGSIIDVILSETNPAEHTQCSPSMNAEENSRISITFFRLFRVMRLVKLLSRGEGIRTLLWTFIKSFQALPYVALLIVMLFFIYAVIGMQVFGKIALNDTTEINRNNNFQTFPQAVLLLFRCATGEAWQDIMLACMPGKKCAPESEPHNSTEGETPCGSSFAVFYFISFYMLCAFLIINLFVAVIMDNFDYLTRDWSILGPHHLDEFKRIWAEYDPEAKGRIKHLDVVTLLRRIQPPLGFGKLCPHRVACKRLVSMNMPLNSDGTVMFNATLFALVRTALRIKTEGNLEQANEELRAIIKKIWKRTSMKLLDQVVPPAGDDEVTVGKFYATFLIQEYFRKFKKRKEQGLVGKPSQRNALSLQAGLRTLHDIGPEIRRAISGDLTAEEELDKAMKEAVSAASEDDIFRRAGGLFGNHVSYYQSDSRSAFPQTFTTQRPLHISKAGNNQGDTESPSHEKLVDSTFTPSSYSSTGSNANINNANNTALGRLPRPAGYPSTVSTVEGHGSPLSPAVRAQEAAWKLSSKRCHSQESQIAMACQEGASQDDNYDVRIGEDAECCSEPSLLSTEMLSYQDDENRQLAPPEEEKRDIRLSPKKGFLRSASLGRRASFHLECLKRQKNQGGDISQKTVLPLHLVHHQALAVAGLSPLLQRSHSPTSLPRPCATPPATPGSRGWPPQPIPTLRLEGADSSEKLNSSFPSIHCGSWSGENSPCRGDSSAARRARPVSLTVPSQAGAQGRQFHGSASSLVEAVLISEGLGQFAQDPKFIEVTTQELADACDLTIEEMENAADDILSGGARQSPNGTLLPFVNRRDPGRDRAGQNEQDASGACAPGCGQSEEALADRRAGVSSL
calcium channel antagonist receptors (rabbit heart), sequence (P13806 27-960 partner limits assumed, other chains not shown): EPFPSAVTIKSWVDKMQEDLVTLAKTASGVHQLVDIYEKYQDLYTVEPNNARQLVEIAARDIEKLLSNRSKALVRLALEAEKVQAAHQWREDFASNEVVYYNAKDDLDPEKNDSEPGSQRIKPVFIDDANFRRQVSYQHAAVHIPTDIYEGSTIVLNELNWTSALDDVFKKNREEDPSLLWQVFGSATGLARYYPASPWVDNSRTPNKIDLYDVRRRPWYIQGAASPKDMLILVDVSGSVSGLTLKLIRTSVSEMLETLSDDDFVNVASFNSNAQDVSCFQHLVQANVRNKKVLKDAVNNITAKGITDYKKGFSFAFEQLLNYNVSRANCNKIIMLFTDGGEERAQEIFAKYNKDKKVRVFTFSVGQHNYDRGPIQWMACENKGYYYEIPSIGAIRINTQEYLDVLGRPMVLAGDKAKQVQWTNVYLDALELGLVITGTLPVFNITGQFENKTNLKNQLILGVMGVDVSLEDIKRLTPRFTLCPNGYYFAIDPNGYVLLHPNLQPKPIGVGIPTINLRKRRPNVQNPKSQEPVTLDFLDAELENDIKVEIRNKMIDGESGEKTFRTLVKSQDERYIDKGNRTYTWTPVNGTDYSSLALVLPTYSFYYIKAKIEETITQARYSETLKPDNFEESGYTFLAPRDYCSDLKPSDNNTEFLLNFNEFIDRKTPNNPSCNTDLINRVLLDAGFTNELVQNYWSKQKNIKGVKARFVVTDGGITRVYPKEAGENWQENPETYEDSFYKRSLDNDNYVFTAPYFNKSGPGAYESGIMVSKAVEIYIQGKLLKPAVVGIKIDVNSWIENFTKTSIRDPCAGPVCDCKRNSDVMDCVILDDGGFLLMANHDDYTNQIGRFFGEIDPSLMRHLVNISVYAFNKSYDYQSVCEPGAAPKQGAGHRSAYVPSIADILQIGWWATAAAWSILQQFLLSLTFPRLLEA
calcium channel antagonist receptors (rabbit heart), sequence (P13806 961-1106 partner limits assumed, other chains not shown): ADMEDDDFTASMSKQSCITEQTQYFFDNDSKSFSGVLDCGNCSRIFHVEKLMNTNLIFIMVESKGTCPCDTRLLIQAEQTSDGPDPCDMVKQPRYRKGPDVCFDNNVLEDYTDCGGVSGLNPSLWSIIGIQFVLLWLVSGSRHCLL

Test [2] concerns vascular smooth muscle tissue from the rabbit aorta. Kind of test: Rabbit Potassium Depolarized Blood Vessel Test (Test 2). Format: cell-based. The following applies: Oryctolagus cuniculus, 10 min; test compound 10^-6 M, 10 minute exposure, 30 mM potassium chloride, rabbit aorta strips, 37° C.; read-out: Test 2 (% Inhibition) of potassium-induced contraction. The text has this:
This tissue can be made to contract when exposed to a depolarizing solution containing an elevated potassium ion concentration and normal amounts of calcium ions. A test compound added to the solution produces a dose-dependent relaxation of the contracted rabbit aortic tissue which gives an indication of calcium antagonist activity of the test compound. This test is described below as the "Rabbit Potassium Depolarized Blood Vessel Test".
In the Rabbit Potassium Depolarized Blood Vessel Test, rabbits are killed by cervical dislocation, and the thoracic aorta is removed. Helical strips, approximately 30-40 mm in length, are cut from the aorta and are suspended in tissue baths of oxygenated Krebs bicarbonate buffer at 37° C. under a resting tension of 4 g. After an equilibration period of approximately 1-2 hours, the strips are challenged with a 30 mM potassium chloride solution and the peak contraction is measured. Following measurement of the peak contraction, the strips are washed and re-equilibrated for an hour in oxygenated Krebs bicarbonate buffer. After the re-equilibration of the aorta strips, the test compound was added to the bath at a concentration of 10-^6 M and the strips were allowed to stand for 10 minutes. After the 10 minute exposure to the test compound, the tissue strips were rechallenged with 30 mM potassium chloride solution and the maximum contraction was measured. The specificity of any inhibition of contraction is determined by addition of 10 mM phenylephrine.
The percent inhibition of contraction is calculated from the formula: […]
where CT is the peak contraction in the presence of the test compound and Cc is the peak contraction without test compound.
Test results for exemplary compounds of Formula I are provided in Table I below, in which the Rabbit Potassium Depolarized Blood Vessel Test is called "Test 2", the Nitrendipine Binding Assay is called "Test 1" and the Spontaneously Hypertensive Rat test is called "Test 3".

For test [3], the system named is spontaneously hypertensive rats. As to the kind of experiment: Spontaneously Hypertensive Rat Test (Test 3). Format: in vivo. To be noted: 100 mg/kg body weight, four male spontaneously hypertensive rats, indirect tail-cuff method. The procedure:
Alternatively, one may evaluate the calcium antagonist activity of a test compound by measuring the displacement of nitrendipine to calcium channel antagonist receptors by the test compound according to the methods of Bolger, et al., Biochem. Biophys. Res. Comm., 104(4), 1604-1609 (1982) and Ehlert, et al., Life Sciences, 30, 2191-2202 (1982). In such a test, the amount of specifically-bound nitrendipine to rabbit heart is determined in the presence and absence of test compound. The percent nitrendipine displacement is directly related to the efficacy of the test compound as a calcium antagonist. This assay is described below as the "Nitrendipine Binding Assay". […] Circ. J., 270, 282 (1963). The general techniques for conducting such tests are disclosed in B. Vagnovsky "Automatic Blood-Pressure Measurements in Small Animals", American Laboratory, April, 1973, and "Techniques for the Measurement of Blood Pressure", Institute of Laboratory Animal Resouces NEWS, Vol. XIX (3), G 11-12, Spring, 1976. In this test a group of four male spontaneously hypertensive rats having systolic blood pressures greater than 150 mm Hg are used for each test compound. Systolic blood pressure is measured by the indirect method using a tail-cuff. The compounds are administered at a dose of 100 mg/kg body weight, and the average of the peak decrease in blood pressure is calculated for the four rats. Test results for exemplary compounds of Formula I are provided in Table I below, in which the Rabbit Potassium Depolarized Blood Vessel Test is called "Test 2", the Nitrendipine Binding Assay is called "Test 1" and the Spontaneously Hypertensive Rat test is called "Test 3".

For orientation: inhibition means how much of the control response was suppressed. Take `CC1=C(C(=O)OCCN(C)Cc2ccccc2)C(c2ccccc2)c2c(n(C)c(=O)n(C)c2=O)N1` (stereo not shown) [XI]: in test [1], the IC50 amounted to 1300 nM. In addition, in test [2], the inhibition at 1 µM was found to be 12%. Further, in test [3], the “Test 3 (mmHg, 100 mpk): average of the peak decrease in systolic blood pressure” value is -28 mmHg.

In the case of `CC1=C(C(=O)OCCF)C(c2cccc(Cl)c2)c2c(n(C)c(=O)n(C)c2=O)N1` (stereo not shown) [XXVI], in test [1], the IC50 worked out at 890 nM.

As for `CC1=C(C(=O)OCCN(C)Cc2ccccc2)C(c2cccc([N+](=O)[O-])c2)c2c([nH]c(=O)[nH]c2=O)N1` (stereo not shown) [XXII], the IC50 in test [1] amounted to 7700 nM. Moreover, the “Test 3 (mmHg, 100 mpk): average of the peak decrease in systolic blood pressure” value in test [3] is given as -11 mmHg.

For the compound `COC(=O)C1=C(C)Nc2c(c(=O)n(C)c(=O)n2C)C1c1cccc(Cl)c1` (stereo not shown) [Example II, Methyl 5-(3-Chlorophenyl)-5,8-dihydro-1,3,7-trimethyl-2,4-dioxopyrido[2,3-d]pyrimidine-6-carboxylate], the IC50 in test [1] was 1000 nM. In test [2], the inhibition at 1 µM was 3%. In addition, the “Test 3 (mmHg, 100 mpk): average of the peak decrease in systolic blood pressure” value in test [3] is on record as -31 mmHg.

Regarding `CC1=C(C(=O)OCCN(C)Cc2ccccc2)C(c2cccc(Cl)c2)c2c([nH]c(=S)[nH]c2=O)N1` (stereo not shown) [XX], the IC50 in test [1] was over 1000 nM. Further, the “Test 3 (mmHg, 100 mpk): average of the peak decrease in systolic blood pressure” value in test [3] is recorded as -16 mmHg.

Turning to `CC1=C(C(=O)OCCN(C)Cc2ccccc2)C(c2ccco2)c2c(n(C)c(=O)n(C)c2=O)N1` (single isomer, unassigned) [Example XVI, 2-(N-benzyl-N-methylamino)ethyl-5-(furan-2-yl)-5,8-dihydro-1,3,7-trimethyl-2,4-dioxopyrido [2,3-d]pyrimidine-6-carboxylate], in test [1], the IC50 amounted to 2000 nM.

Consider `CC1=C(C(=O)OCCBr)C(c2cccc([N+](=O)[O-])c2)c2c(n(C)c(=O)n(C)c2=O)N1` (stereo not shown) [XXIV], for which the IC50 in test [1] came to 109 nM. Besides, in test [2], the inhibition at 1 µM is 26%. The “Test 3 (mmHg, 100 mpk): average of the peak decrease in systolic blood pressure” value in test [3] was -10 mmHg.

For `CC1=C(C(=O)OCCN(C)Cc2ccccc2)C(c2cccc(C)c2)c2c(n(C)c(=O)n(C)c2=O)N1` (stereo not shown) [Example X], the IC50 in test [1] turned out to be 3200 nM. Also, the inhibition at 1 µM in test [2] came out at 16%. For the same compound, the “Test 3 (mmHg, 100 mpk): average of the peak decrease in systolic blood pressure” value in test [3] is -12 mmHg.

In the case of `CC1=C(C(=O)OCC(F)(F)F)C(c2cccc(Cl)c2)c2c(n(C)c(=O)n(C)c2=O)N1` (stereo not shown) [XXVII], in test [1], the IC50 worked out at 860 nM.

For the compound `CC1=C(C(=O)OCCN(C)Cc2ccccc2)C(c2ccco2)c2c(n(C)c(=O)n(C)c2=O)N1.Cl.O` (single isomer, unassigned) [Example III, 2-(N-Benzyl-N-methylamino)ethyl 5-(Furan-2-yl)-5,8-dihydro-1,3,7-trimethyl-2,4-dioxopyrido[2,3-d]pyrimidine-6-carboxylate Monohydrochloride Monohydrate], the IC50 in test [1] worked out at 6000 nM. In test [3], the “Test 3 (mmHg, 100 mpk): average of the peak decrease in systolic blood pressure” value was -22 mmHg.

On to `CC1=C(C(=O)OCCCBr)C(c2cccc(Cl)c2)c2c(n(C)c(=O)n(C)c2=O)N1` (stereo not shown) [XXIX], for which the IC50 in test [1] came out at 385 nM. For the same compound, in test [2], the inhibition at 1 µM came to 44%.

As to `CC1=C(C(=O)OCCN(C)Cc2ccccc2)C(c2ccccc2[N+](=O)[O-])c2c(n(C)c(=O)n(C)c2=O)N1` (stereo not shown) [XIII], in test [3], the “Test 3 (mmHg, 100 mpk): average of the peak decrease in systolic blood pressure” value is -35 mmHg.

On to `CC1=C(C(=O)OCCBr)C(c2ccccc2Cl)c2c(n(C)c(=O)n(C)c2=O)N1` (stereo not shown) [XXVIII], for which the IC50 in test [1] was 175 nM. Also, the inhibition at 1 µM in test [2] came to 23%.

Consider `CC1=C(C(=O)OCCBr)C(c2cccc(C(F)(F)F)c2)c2c(n(C)c(=O)n(C)c2=O)N1` (stereo not shown) [XXV], for which the IC50 in test [1] turned out to be 1100 nM. Moreover, in test [2], the inhibition at 1 µM is 41%.

On to `COC(=O)C1=C(C)Nc2c(c(=O)n(C)c(=O)n2C)C1c1ccco1` (stereo not shown) [Example XV], for which the IC50 in test [1] came to 100000 nM. Also, in test [3], the “Test 3 (mmHg, 100 mpk): average of the peak decrease in systolic blood pressure” value is -22 mmHg.

For `CC1=C(C(=O)OCCN(C)Cc2ccccc2)C(c2cccc(Cl)c2)c2c([nH]c(=O)[nH]c2=O)N1` (stereo not shown) [VII], the IC50 in test [1] amounted to 8000 nM.
